Laboratory results published in PubChem BioAssay AID1259426 (Fisher Drug Discovery Resource Center, 2018).
The source made the active and inactive calls.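 Rule for the calls: active = EC50 under a set limit in control cells lacking the mosquito receptor, marking a fluorescence artifact; inactive = the rest.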

These compounds were tested against HEK293 Galpha15/GCaMP6s without NPYLR7, calcium fluorescence (assay: calcium response in NPYLR7-null HEK293 cells, dose response, counter-screen for mosquito NPYLR7 agonist project, cell-based, HEK293 lacking NPYLR7 (AID 1259426);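 note: potency for a rise in fluorescence over baseline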).
With `COc1ccccc1Oc1nc2ccccn2c(=O)c1/C=C(\C#N)c1nc2ccccc2s1` the EC50 was > 20 µM (inactive). With `Clc1cccc2ccc(CN3CCn4cncc4C3)nc12` the EC50 was 19.2 µM. In the case of `O=C(O)c1csc(CSc2nnc(Cc3ccccc3)n2-c2cccc(C(F)(F)F)c2)n1`, the EC50 is reported as > 20 µM (inactive). With `CNC[C@@H](O)c1ccc(O)c(O)c1` the EC50 was < 0.039 µM. `CC(=O)Nc1nc(COC(=O)c2[nH]c(C)c(C(=O)OC(C)C)c2C)cs1` was tested, and the EC50 was > 20 µM (inactive). `CCCC[n+]1c(C)cc(C=C2Sc3ccccc3N2CC)cc1C` showed an EC50 of 18.7 µM. `COc1ccc(NCc2ccc(OC)c(Br)c2)cn1` gave an EC50 of 5.12 µM. `CCCCN(C)C1=CC2=CC(=C(C#N)C#N)CCC2CC1` (stereo unspecified) was tested, and the EC50 was < 0.039 µM. In the case of `CCN1CC=C2C(C#N)C(=N)C(C#N)(C#N)C(c3cccs3)C2C1` (stereo unspecified), the EC50 is reported as > 20 µM (inactive). For `CCC(C)[n+]1c(C)cc(C=C2Sc3ccccc3N2C)cc1C` (stereo unspecified), the EC50 was 7.94 µM. For `CC1=CC(C)C(C(=O)O)C(C(=O)O)C1` (stereo unspecified), the EC50 was > 20 µM (inactive). For `CCOC(=O)C1=C(O)/C(=C\c2ccc(N(C)C)cc2)SC1=Nc1ccc(OC)cc1OC`, the EC50 was > 20 µM (inactive). In the case of `COc1ccc2c(c1)OCC(C=C(C#N)S(=O)(=O)c1ccc(Br)cc1)=C2`, the EC50 is reported as > 20 µM (inactive). Compound `CC(=O)[C@]1(O)Cc2c(O)c3c(c(O)c2[C@@H](O[C@H]2C[C@H](N)[C@H](O)[C@H](C)O2)C1)C(=O)c1ccccc1C3=O` has an EC50 of 4.29 µM. For `CC(C)Nc1ccc(NS(=O)(=O)NCc2ccccc2)cn1`, the EC50 was > 20 µM (inactive). Work on `Cc1cc(C=C2Sc3ccccc3N2C)cc(C)[n+]1-c1ccccc1` yielded an EC50 of 1.51 µM. For `CCOC(=O)N1CCN(c2ccc(/C=C(\C#N)c3nc4ccccc4[nH]3)o2)CC1`, the EC50 was > 20 µM (inactive). For `N#CC1C(=N)SC(=N)C(C#N)C1c1ccccc1F` (stereo unspecified), the EC50 was 10.2 µM. `Cc1ccc(OCCNC(=O)N2CCN(S(=O)(=O)c3ccccc3Cl)CC2)c(C)c1` was tested, and the EC50 was > 20 µM (inactive). `C[C@@H]1OC(O[C@H]2[C@H](OC(=O)[C@]34CCC(C)(C)CC3C3=CCC5[C@@]6(C)CC[C@H](OC7O[C@@H](C)[C@H](O[C@@H]8OC[C@@H](O)[C@H](O)[C@H]8O)[C@@H](O)[C@H]7O)C(C)(C)C6CC[C@@]5(C)[C@]3(C)CC4O)OC[C@H](O)[C@H]2O)[C@H](O)[C@H](O)[C@H]1O[C@@H]1O[C@H](CO)[C@@H](O)[C@H](O)[C@H]1O` (stereo partly specified) was tested, and the EC50 was 10.3 µM. Compound `CCOc1cc(/C=C2\C(=N)N3N=CSC3=NC2=O)cc(Br)c1OC(=O)c1ccccc1` has an EC50 of 3.04 µM. In the case of `CC[n+]1c(/C=C/C=C2/N(C)c3ccccc3C2(C)C)sc2ccccc21`, the EC50 is reported as > 20 µM (inactive). With `N#CC(C#N)=C1C=C2C=C(N3CCCCCC3)CCC2CC1` (stereo unspecified) the EC50 was < 0.039 µM. In the case of `CC(=NNc1ncnc2sc(C)c(C)c12)c1ccccn1`, the EC50 is reported as “inactive”. `CC(C)c1nc(NC(=O)c2[nH]ncc2Br)n(C)n1` was tested, and the EC50 was 1.5 µM. For `CSc1ccc(C2CC(c3ccc(Cl)cc3)=Nc3ncnn32)cc1` (stereo unspecified), the EC50 was > 20 µM (inactive). With `CCCn1c2c(c(=O)n(C)c1=O)C(=O)C(=Cc1ccc(N(C)C)cc1)N2` the EC50 was 2.17 µM. For `C[C@H](O)C(=O)C1=Nc2c(nc(N)[nH]c2=O)NC1`, the EC50 was > 20 µM (inactive). `NC(=NC1C2CC3CC(C2)CC1C3)Nc1ccc(I)cc1` (stereo unspecified) was tested, and the EC50 was 14.1 µM. For `N#CC1C(=N)Oc2cc(O)ccc2C1c1ccc(Cl)cc1Cl` (stereo unspecified), the EC50 was 11.9 µM. `Nc1ncnc2c1ncn2[C@@H]1O[C@H](CO)[C@@H](O)[C@H]1O` was tested, and the EC50 was < 0.039 µM. In the case of `COc1ccc(Cl)cc1NC(=O)/C(C#N)=C/c1coc2ccc(C)cc2c1=O`, the EC50 is reported as > 20 µM (inactive). Work on `COc1ccccc1N=c1oc2cc(O)ccc2cc1-c1nc2ccccc2[nH]1` yielded an EC50 of 0.805 µM. `COc1ccc(/C=C2\Oc3c(ccc4c3CN(C3CCS(=O)(=O)C3)CO4)C2=O)cc1` (stereo unspecified) was tested, and the EC50 was 8.35 µM. Compound `Cc1cc(C)c2cc3c(cc2n1)CCN3CC(O)CO` (stereo unspecified) has an EC50 of 2.78 µM. In the case of `COc1cc(C(=O)N2CCOC(c3ccccc3)C2)cc(OC)c1C` (stereo unspecified), the EC50 is reported as > 20 µM (inactive). `CCOC(=O)C1CCCN(CC(=O)N2N=C(c3ccccc3Cl)CC2c2ccc(Cl)cc2)C1` (stereo unspecified) was tested, and the EC50 was > 20 µM (inactive). `CC1N(C)c2ccc(C=Cc3cc[n+](C)cc3)cc2C1(C)C` (stereo unspecified) gave an EC50 of 8.49 µM. With `O=[N+]([O-])c1cc(S(=O)(=O)Nc2cc(Cl)ccc2F)ccc1F` the EC50 was > 20 µM (inactive). `CSCCC(C(=O)O)N1C(=O)/C(=C/c2ccc(O)cc2)SC1=S` (stereo unspecified) gave an EC50 of 6.49 µM. `N#C/C(=C\c1ccc(O)c(O)c1)C(=O)NCCCc1ccccc1` was tested, and the EC50 was > 20 µM (inactive). In the case of `CN(Cc1ccccc1)c1cc(Oc2cccc(Cl)c2)ncn1`, the EC50 is reported as > 20 µM (inactive). Work on `Cc1ccc(/C=C2/Oc3cc(O)ccc3C2=O)s1` yielded an EC50 of 17.2 µM. With `CCNC(=O)[C@H]1O[C@@H](n2cnc3c(N)ncnc32)C(O)[C@H]1O` (stereo partly specified) the EC50 was < 0.039 µM. With `CCC1CN(C(=O)c2cc(C(C)C)on2)CCC(=O)N1Cc1ccccc1` (stereo unspecified) the EC50 was > 20 µM (inactive). `COc1ccc(-n2ccnc2-c2nc(-c3cccs3)oc2C)cn1` was tested, and the EC50 was > 20 µM (inactive). `O=C(CC1SC(=O)NC1=O)Oc1ccc(/C=C2\SC(=O)NC2=S)cc1` (stereo unspecified) showed an EC50 of 7.71 µM. With `CCC(CO)[n+]1c(C)cc(C=C2Sc3ccccc3N2Cc2ccccc2)cc1C` (stereo unspecified) the EC50 was > 20 µM (inactive). Compound `N#Cc1cc2cc(Cl)cc(Cl)c2oc1=O` has an EC50 of 1.94 µM. In the case of `CCOc1cccc(C=C2Oc3cc(O)ccc3C2=O)c1OC`, the EC50 is reported as > 20 µM (inactive). With `O=C(Cc1ccc2c(c1)CCC2)NCC1CCN(c2ccccc2)C1` (stereo unspecified) the EC50 was > 20 µM (inactive).
